Measurements taken from BigSolDB 2.1.

CC(C)=CCOc1c2occc2cc2ccc(=O)oc12
solubility (mole fraction)
Settings | 288.2 K | 293.2 K | 298.2 K | 303.2 K | 308.2 K | 313.2 K | 318.2 K | 323.2 K | 328.2 K
in ethanol | 0.00325 | 0.00454 | 0.0063 | 0.00865 | 0.0118 | 0.016 | 0.0215 | 0.0288 | 0.0382
in water | 7.4e-07 | 1.03e-06 | 1.06e-06 | 1.03e-06 | 1.35e-06 | 1.46e-06 | 1.5e-06 | 1.53e-06 | 1.81e-06
